Here are results for one compound from article PMC11742723, “The clinical-stage drug BTZ-043 accumulates in murine tuberculosis lesions and efficiently acts against Mycobacterium tuberculosis” (Nature Communications, 2025).

“And” between values parts separate entries of the source, which are not always exact repeats. Equal values may be shown once. Read-outs that look alike come from different tables or passages of the source.

The series in a line: LCM coupled LC-MS/MS of necrotic granulomas and non-necrotic regions. It is filed as in vivo, IL-13tg mice. To be noted: for concentration at 4 h: IL-13tg, mouse, oral. How it is done: Necrotic granulomas and non-necrotic regions were dissected from 2 to 3 γ−irradiated serial lung cryosections (thickness: 12 µm) using a PALM Microbeam (Zeiss, Oberkochen, Germany). Laser-dissected tissues were captured in an ascorbic acid solution (2.5 mg/mL) to prevent the degradation of BTZ-043 and stored at -80 °C. Samples were thawed on ice before drying in the SpeedVac. For reconstitution 80 µL of an 80% ACN/ 20% FA, containing 20 ng/mL reserpine and d4-BTZ-043, were added. The samples were vortexed for 1 min and kept in an ultrasonic bath for 3 min. Subsequently, the samples were centrifuged (10 min, 15,000 × g). The supernatant was transferred into a glass vial and 5 µL was injected into the LC. The LC settings and MS parameters were the same as described for the tissue mimetics (Supplementary Methods). As internal standard d4-BTZ-043 was utilized, with the m/z-transitions 436.0 → 86.0 (cone voltage of 30 V, collision energy of 30 eV, dwell time of 0.2 s) as quantifier. With the expected very low concentrations of the analyte in the LCM material, the deuterated standard was applied to better mimic matrix effects and recovery for this analysis. For calibration curve preparation lung homogenate from drug-naïve mice was added to 80% ACN/20% FA (1%), containing reserpine (as QC) and d4-BTZ-043 (20 ng/mL per sample) to the final solution containing about 0.44 µg tissue/mL, which equals the average weight of the obtained material of the LCM. After centrifugation (5 min, 15,000 × g) the supernatant was spiked with BTZ-043 to yield a calibration curve ranging from 0.00015–0.025 µg/mL.

[1] abbreviates: LCM flakes from adjacent area (non necrotic), 4h post administration, listed as BTZ.

Consider `C[C@H]1COC2(CCN(c3nc(=O)c4cc(C(F)(F)F)cc([N+](=O)[O-])c4s3)CC2)O1` [BTZ-043], for which the concentration at 4 h was found to be 570 ng/mL (TB granulomas laser-dissected from lung cryosections, 250 mg/kg, 4 h after administration, assumed tissue density 1 g/mL, read-out: mean BTZ-043 concentration within TB granulomas); 495 ng/g (lung, laser-dissected necrotic granuloma, 250 mg/kg, LCM flakes from granulome area (granuloma), IL-13tg mouse lung cryosections, 4h post administration, read-out: ng/mg lung tissue, technical replicate 2); 430 ng/g (lung, laser-dissected necrotic granuloma, 250 mg/kg, LCM flakes from granulome area (granuloma), mean of 2 technical replicates, 4h post administration, read-out: ng/mg lung tissue, Mean); 779 ng/g (lung, whole cryosection, 250 mg/kg, whole cryosection from OT207 (QC, internal control), 4h post administration, read-out: ng/mg lung tissue, technical replicate 1); 846 ng/g (lung, whole cryosection, 250 mg/kg, whole cryosection from OT207 (QC, internal control), 4h post administration, read-out: ng/mg lung tissue, technical replicate 2); 810 ng/g (lung, whole cryosection, 250 mg/kg, whole cryosection from OT207 (QC, internal control), mean of 2 technical replicates, 4h post administration, read-out: ng/mg lung tissue, Mean). The concentration at 4 h (necrotic granulomas laser-dissected from lung cryosections, 250 mg/kg/day, IL-13tg mouse, 250 mg/kg/day 10 days, 4 h after application, read-out: mean BTZ-043 concentration in necrotic granulomas) worked out at 570 ng/g; the concentration at 4 h (non-necrotic regions laser-dissected from lung cryosections, 250 mg/kg/day, IL-13tg mouse, 250 mg/kg/day 10 days, 4 h after application, read-out: mean BTZ-043 concentration in non-necrotic regions) turned out to be 340 ng/g; the concentration at 4 h (250 mg/kg, LCM flakes from adjacent area (non necrotic), 4h post administration, read-out: ng/mg lung tissue, technical replicate 1) came out at 388 ng/g; the concentration at 4 h (250 mg/kg, LCM flakes from adjacent area (non necrotic), 4h post administration, read-out: ng/mg lung tissue, technical replicate 2) amounted to 371 ng/g; the concentration at 4 h (250 mg/kg, LCM flakes from adjacent area (non necrotic), mean of 2 technical replicates, 4h post administration, read-out: ng/mg lung tissue, Mean) is 380 ng/g. The “ng/mg lung tissue, technical replicate 1” value under setting [1] is 0.303 ng/mg lung tissue and 0.478 ng/mg lung tissue. The “ng/mg lung tissue, technical replicate 2” value under setting [1] is 0.299 ng/mg lung tissue and 0.205 ng/mg lung tissue. In addition, the “ng/mg lung tissue, Mean” value was 0.30 ng/mg lung tissue and 0.34 ng/mg lung tissue (LCM flakes from adjacent area (non necrotic), mean of 2 technical replicates, 4h post administration, listed as BTZ); 0.66 ng/mg lung tissue and 0.65 ng/mg lung tissue (LCM flakes from granulome area (granuloma), mean of 2 technical replicates, 4h post administration, listed as BTZ).
